Values of other authors in publication PMC8476002, “Bergamottin a CYP3A inhibitor found in grapefruit juice inhibits prostate cancer cell growth by downregulating androgen receptor signaling and promoting G0/G1 cell cycle block and apoptosis” (PLoS ONE, 2021).

Experiments:
cell growth = details: earlier work of the authors; cited from earlier work
cytoplasmic AR = system: cytoplasmic AR; design: method as in PMID 32316460; details: cited from earlier work

SMILES | cell growth (cell growth) | cytoplasmic AR (cytoplasmic AR)
CC[C@]1(C)C[C@@H](OC(=O)CSc2nnc(N)[nH]2)[C@]2(C)[C@H](C)CC[C@]3(CCC(=O)[C@H]32)[C@@H](C)[C@@H]1O [azamulin] | cell growth is inhibited | –
CC(C)c1nc(CN(C)C(=O)N[C@H](C(=O)N[C@@H](Cc2ccccc2)C[C@H](O)[C@H](Cc2ccccc2)NC(=O)OCc2cncs2)C(C)C)cs1 [ritonavir] | – | increase in cytoplasmic AR
